Reference: patent US9234885B2 (priority 2011, dated 2016)
Entries after “also recorded” stand apart in the source; their conditions may differ.

Key:
MARV-Ci67 = assay type: cell-based, Marburg virus
EBOV-Zaire 1995 = assay type: cell-based, Ebola virus
VSV [1] = assay type: cell-based, vesicular stomatitis virus
rVSV-GP-EboV [2] = assay type: cell-based, Ebola virus
rVSV-GP-EboV [3] = assay type: cell-based, Ebola virus; remark: listed apart in the source
[4] = tested on: human peripheral blood monocyte-derived dendritic cells and umbilical-vein endothelial cells (HUVEC)
[5] = tested on: intracellular cholesterol; assay type: cell-based, grivet monkey
VSV [6] = assay type: cell-based, vesicular stomatitis virus; remark: listed apart in the source

## CN(C)CCCN1c2ccccc2CCc2ccccc21 [imipramine]
MARV-Ci67
  infection by authentic MarV, percentage of infected cells by immunostaining: blocks
  viral yield, authentic MarV: Stark reductions
EBOV-Zaire 1995
  infection by authentic EboV, percentage of infected cells by immunostaining: blocks
  viral yield, authentic EboV: Stark reductions
VSV [1]
  viral infection by VSV: but not VSV
rVSV-GP-EboV [2]
  viral infection mediated by EboV GP: potently inhibited

## bafilomycin A1 [bafA1]
rVSV-GP-EboV [3]
  VSV M staining pattern after rVSV-GP-EboV (diffuse = fusion, punctate = block): discrete punctuate of M staining

## CCN(CC)CCO[C@H]1CC[C@@]2(C)C(=CC[C@@H]3[C@@H]2CC[C@]2(C)C(=O)CC[C@@H]32)C1 [U18666A, 3-β-[2-(diethylamino)ethoxy]androst-5-en-17-one]
[4]
  cell number or morphology: without affecting
MARV-Ci67
  infection by authentic MarV, percentage of infected cells by immunostaining: greatly reduced; also recorded: blocks
  viral yield, authentic MarV: Stark reductions
rVSV-GP-EboV [3]
  VSV M staining pattern after rVSV-GP-EboV (diffuse = fusion, punctate = block): only punctate M staining
EBOV-Zaire 1995
  infection by authentic EboV, percentage of infected cells by immunostaining: greatly reduced; also recorded: blocks
  viral yield, authentic EboV: Stark reductions
[5]
  time until significant intracellular accumulation of cholesterol is observed: > 4 h
VSV [6]
  VSV M staining pattern after VSV (diffuse = fusion, punctate = block): Diffuse M staining
VSV [1]
  viral infection by VSV: but not VSV
rVSV-GP-EboV [2]
  time after addition to cells until viral infection is inhibited: < 10 min
  viral infection mediated by EboV GP: potently inhibited

## ammonium chloride [NH4Cl]
rVSV-GP-EboV [3]
  VSV M staining pattern after rVSV-GP-EboV (diffuse = fusion, punctate = block): discrete punctuate of M staining
